From ChEMBL document CHEMBL1132126, “Synthesis of spermidine and norspermidine dimers as high affinity polyamine transport inhibitors” (Bioorg Med Chem Lett, 1999) come the findings set out here.

Molecules are shown by their SMILES.

Format in all cases: functional, cell-based
One experiment deals with ZR-75-1. Description: Inhibition of [3H]spermine transport by the compound was evaluated in ZR-75-1 human breast cancer cells.
For experiment [1], the system named is T47D. The experiment is described as follows: Inhibition of [3H]putrescine transport by the compound was evaluated in T-47D human breast cancer cells.
For experiment [2], the system named is T47D. Description: Inhibition of [3H]spermidine transport by the compound was evaluated in T-47D human breast cancer cells.
The test system of experiment [3] is T47D. The experiment is described as follows: Inhibition of [3H]spermine transport by the compound was evaluated in T-47D human breast cancer cells.

A word on the Ki: it is a measure of affinity in units of concentration, obtained from inhibition or displacement. In the case of `NCCCNCCCC(NCCCN)C(=O)NCCSSCCNC(=O)C(CCCNCCCN)NCCCN` (stereo not drawn), the Ki with ZR-75-1 came to 4000 nM; in the experiment with T47D [1], 3100 nM; in the experiment on T47D [2] it was 12600 nM; with T47D [3], 15900 nM.

As for `NCCCCN(CC#CCN(CCCN)CCCCN)CCCN`, the Ki in the experiment with T47D [1] came to 1900 nM; with T47D [2], 16900 nM; with T47D [3], 27700 nM.

As to `NCCCCN(CCCN)Cc1ccc(CN(CCCN)CCCCN)cc1`, the Ki was 240 nM in the experiment with ZR-75-1, 280 nM with T47D [1], 2000 nM in the experiment on T47D [2] and 2900 nM in the experiment with T47D [3].

In the case of `NCCCN(C/C=C/CN(CCCN)CCCN)CCCN`, the figures for the Ki in the experiment on T47D [1], in the experiment with T47D [2] and in the experiment with T47D [3] were 270 nM, 2000 nM and 1600 nM, respectively.

In the case of `NCCCCN(CCCN)CCCCN(CCCN)CCCCN`, the Ki in the experiment on T47D [1] is 720 nM; with T47D [2], 4900 nM; in the experiment on T47D [3], 4300 nM.

As to `NCCCN(CCCN)C(=O)CCC(=O)N(CCCN)CCCN`, the affinity in the experiment with ZR-75-1, expressed as Ki, was 1700 nM. This lies in the single-digit micromolar range.

Take `NCCCN(CCCN)Cc1ccc(CN(CCCN)CCCN)cc1`: the Ki came to 700 nM in the experiment on ZR-75-1, 160 nM in the experiment on T47D [1], 1500 nM in the experiment with T47D [2] and 1500 nM with T47D [3].

`NCCCN(CCCN)CCCCN(CCCN)CCCN`: the inhibition constant (Ki) was determined as 560 nM in the experiment on ZR-75-1, 520 nM in the experiment with T47D [1], 2400 nM in the experiment with T47D [2] and 6200 nM in the experiment on T47D [3].

For the compound `NCCCN(CC#CCN(CCCN)CCCN)CCCN`, the Ki came out at 2600 nM in the experiment with T47D [1], 25600 nM in the experiment with T47D [2] and 12800 nM in the experiment with T47D [3].

Turning to `NCCCCN(C/C=C/CN(CCCN)CCCCN)CCCN`, the figures for the Ki in the experiment with T47D [1], in the experiment with T47D [2] and in the experiment on T47D [3] were 100 nM, 1800 nM and 1500 nM, respectively.

In turn, `NCCCCN` [PUTRESCINE] returned a Ki in the experiment on T47D [1] of 7400 nM.

On to `NCCCCNCCCN` [SPERMIDINE], for which the Ki with T47D [2] turned out to be 4400 nM.

Take `NCCCNCCCCNCCCN` [SPERMINE]: the Ki in the experiment with ZR-75-1 was determined as 200 nM; in the experiment with T47D [1], 650 nM; in the experiment on T47D [2] it was 920 nM; with T47D [3], 2700 nM.
